The subject of assay [1] is white blood cells from human buffy coat. The experiment in a line: alamarBlue assay (toxicity/cell viability), PMA/ionomycin stimulated. It is filed as cell-based. Conditions: PBMC, read-out: % Inhibition of Proliferation of PBMC PI. Here is the method:
(§1) A stock solution containing prednisolone (0.36 mg/ml) was prepared in DMSO. A stock solution containing ibudilast (1.84 mg/ml) was prepared in DMSO. Master plates were prepared for dilutions of the stock solutions above.
(§2) The final single agent plates were generated by transferring 1 μL of stock solution from the specific master plate to separate dilution plates containing 99 μL of media (RPMI; Gibco BRL, #11875-085), 10% fetal bovine serum (Gibco BRL, #25140-097), 2% penicillin/streptomycin (Gibco BRL, #15140-122)) using the Packard Mini-Trak liquid handler. The dilution plates were then mixed and a 10 μL aliquot transferred from each dilution plate to the final assay plate (polystyrene 384-well plate (NalgeNunc)), which had been pre-filled with 30 μL/well RPMI media containing 33 ng/mL phorbol 12-myristate 13-acetate (Sigma, P-1585) and 2.475 ng/mL ionomycin (Sigma, I-0634) or alternatively for the LPS stimulated assay RPMI media containing 2 μg/ml lipopolysaccharide (Sigma, L-4130).
(§3) The percent inhibition (% I) for each well was calculated using the following formula: % I=[(avg. untreated wells−treated well)/(avg. untreated wells)]×100
(§4) The average untreated well value (avg. untreated wells) is the arithmetic mean of 30 wells from the same assay plate treated with vehicle alone.
The toxicity of the test combination were assessed using alamarBlue® assayed in white blood cells from human buffy coat stimulated with LPS or phorbol 12-myistate 13-acetate and Ionomycin, as follows. Human white blood cells from buffy coat were diluted 1:50 in media (RPMI; Gibco BRL, #11875-085), 10% fetal bovine serum (Gibco BRL, #25140-097), 2% penicillin/streptomycin (Gibco BRL, #15140-122)) and 50 μL of the diluted white blood cells was placed in each well of the final assay plate created in the above section. After 16-18 hours of incubation at 37° C. with 5% CO2 in a humidified incubator, 5 μl of alamarBlue® (BioSource Intl. Inc., DAL 1100) was added to all of the wells. After 20-24 hours of incubation in 37° C. in a humidified incubator, fluorescence was then measured using a plate fluorometer.
Cell viability was measured using the alamarBlue® assay described above after stimulation with phorbol 12-myristate 13-acetate and ionomycin. The effects of varying concentrations of ibudilast, prednisolone and a combination of ibudilast and prednisolone were compared to control wells.

Assay [2] concerns TNFα secretion. As to the kind of experiment: TNFα secretion assay (ELISA), lipopolysaccharide stimulated white blood cells. To be noted: Homo sapiens, PBMC, read-out: % Inhibition TNFα PBMC LPS. The assay is classed as cell-based. Here is the method:
The compound dilution matrix was assayed for the suppression of phorbol 12-myristate 13 acetate/ionomycin stimulated IL-1 and TNFα secretion as well as the suppression of lipopolysaccharide-stimulated TNFα secretion from human white blood cells using the ELISA method, as described below.
as §1, §2
The effects of test compound combinations on TNFα secretion were assayed in white blood cells from human buffy coat stimulated with phorbol 12-myistate 13-acetate, or lipopolysaccharide as follows. Human white blood cells from buffy coat were diluted 1:50 in media (RPMI; Gibco BRL, #11875-085), 10% fetal bovine serum (Gibco BRL, #25140-097), 2% penicillin/streptomycin (Gibco BRL, #15140-122)) and 50 μL of the diluted white blood cells were placed in each well of the final assay plate created in the above section. After 16-18 hours of incubation at 37° C. with 5% CO2 in a humidified incubator, the plate was centrifuged and the supernatant transferred to a white opaque polystyrene 384 well plate (NalgeNunc, Maxisorb) coated with an anti-TNFα antibody (PharMingen, #551220). After a two-hour incubation, the plate was washed (Tecan Powerwasher 384) with PBS containing 0.1% Tween 20 and incubated for one additional hour with biotin labeled anti-TNFα antibody (PharMingen, #554511) and HRP coupled to streptavidin (PharMingen, #13047E). The plate was then washed again with 0.1% Tween 20/PBS. An HRP-luminescent substrate was added to each well, and the light intensity of each well was measured using a plate luminometer.
as §3, §4
TNFα secretion was measured by ELISA as described above after stimulation with lipopolysaccharide. The effects of varying concentrations of ibudilast, prednisolone and a combination of ibudilast and prednisolone were compared to control wells.
Background: An ELISA detects its analyte on a solid surface through an enzyme-linked reagent.

Like-named read-outs stand apart in the source and are kept apart here.

Consider `CC(C)C(=O)c1c(C(C)C)nn2ccccc12` [Ibudilast, ibudilast], for which the inhibition at 0.062 µM is -1.5% in assay [1] (ibudilast 0.062 μM alone) and 17% in assay [2] (ibudilast 0.062 μM alone). The figures for the inhibition at 0.12 µM in assay [1] (ibudilast 0.12 μM alone) and in assay [2] (ibudilast 0.12 μM alone) were -5.1% and 24%, respectively. For the same compound, the inhibition at 0.25 µM was 0.84% in assay [1] (ibudilast 0.25 μM alone) and 41% in assay [2] (ibudilast 0.25 μM alone). Further, the inhibition at 0.5 µM was -4% in assay [1] (ibudilast 0.5 μM alone) and 46% in assay [2] (ibudilast 0.5 μM alone). The results for the inhibition at 1 µM in assay [1] (ibudilast 1 μM alone) and in assay [2] (ibudilast 1 μM alone) were -1.9% and 58%, respectively. The inhibition at 2 µM in assay [1] (ibudilast 2 μM alone) turned out to be 2.7%; in assay [2] (ibudilast 2 μM alone) it was 66%. The inhibition at 4 µM in assay [1] (ibudilast 4 μM alone) was found to be 3.3%; in assay [2] (ibudilast 4 μM alone) it was 70%. Also, the inhibition at 8 µM in assay [1] (ibudilast 8 μM alone) is 6.9%; in assay [2] (ibudilast 8 μM alone) it was 79%.
Turning to `C[C@]12C=CC(=O)C=C1CC[C@@H]1[C@@H]2[C@@H](O)C[C@@]2(C)[C@H]1CC[C@]2(O)C(=O)CO` [Prednisolone, prednisolone], the inhibition at 0.0078 µM in assay [1] (prednisolone 0.0078 μM alone) turned out to be 4%; in assay [2] (prednisolone 0.0078 μM alone), 0.085%. Further, the inhibition at 0.016 µM in assay [1] (prednisolone 0.016 μM alone) stood at 1%; in assay [2] (prednisolone 0.016 μM alone), 17%. Besides, the inhibition at 0.031 µM worked out at 1.7% in assay [1] (prednisolone 0.031 μM alone) and 24% in assay [2] (prednisolone 0.031 μM alone). Further, the values for the inhibition at 0.062 µM in assay [1] (prednisolone 0.062 μM alone) and in assay [2] (prednisolone 0.062 μM alone) were -1.7% and 47%, respectively. Also, the inhibition at 0.12 µM in assay [1] (prednisolone 0.12 μM alone) came out at 3.2%; in assay [2] (prednisolone 0.12 μM alone) it was 57%. Also, the inhibition at 0.25 µM in assay [1] (prednisolone 0.25 μM alone) stood at 4.6%; in assay [2] (prednisolone 0.25 μM alone), 66%. Also, the inhibition at 0.5 µM worked out at 0.19% in assay [1] (prednisolone 0.5 μM alone) and 68% in assay [2] (prednisolone 0.5 μM alone). The results for the inhibition at 1 µM in assay [1] (prednisolone 1 μM alone) and in assay [2] (prednisolone 1 μM alone) were 3.1% and 70%, respectively.

These data come from patent US7709495B2, “Methods and reagents for the treatment of inflammatory disorders” (CombinatoRx, Incorporated, priority 2003, dated 2010).
